Literature values in patent US20220047856A1, “HYDROGEL FOR IN-VIVO DIRECTIONAL RELEASE OF MEDICATION” (UMC Utrecht Holding B.V., priority 2018, published 2022).

Details: local anaesthetic, conventional bupivacaine

CCCCN1CCCCC1C(=O)Nc1c(C)cccc1C (stereo not shown) [Bupi, Bupivacaine]
duration of its effect: approx. 8 hours
